The structures appear in SMILES notation. Counter-ions that a name gives are not always drawn.

In data set [1] the test system is elevated level of blood glucose induced by Alloxan in mice. Briefly: Effect on the elevated level of blood glucose induced by alloxan in mice. The class given is in vivo. The settings on record: 75 mg/kg for 7 days. As to the method: Animals: 100 male mice weighed 22-25 g, Positive control: Phenformin Hydrochloride (Jiangsu Yabang Pharmaceutical (group) Co., Ltd.),
20 mice were randomly selected as the blank group. Others were injected intravenously with Alloxan via caudal vein at a dose of 65 mg/kg body weight, and then modeled according to established methods. The mice were divided into 4 groups according to their level of blood glucose, in which 3 groups were administered with 60 mg/kg of the plant extract, 75 mg/kg of Phenformin Hydrochloride, or 60 mg/kg of sequoyitol-containing Taxus chinensis extract respectively for 7 days, in a volume of 0.1 ml/10 g body weight. The same volume of distilled water was administered to the blank group and the control group. Blood glucose was determined using glucose oxidase method.

Another data set is described as follows: Solubility in water. The class given is physicochemical. As to the method:
The sequoyitol was dissolved in water and sterilized by filtration. Solutions for injection were prepared according to the preparation process of solutions for injection. Powder for injection was prepared according to the preparation process of lyophilized powder for injection.

The conditions of data set [2]: sequoyitol isolated from Taxus chinensis; cited from earlier work.
The subject of another data set is diabetes models. The settings on record: sequoyitol isolated from Taxus chinensis; cited from earlier work.

For `[H]/N=C(/N)N/C(=N/[H])NCCc1ccccc1` [Phenformin Hydrochloride], the “Decrease of alloxan-induced hyperglycemia in comparison to the control group” value in data set [1] was 155.8 mg/dL.

For the compound `CO[C@H]1[C@H](O)[C@@H](O)[C@@H](O)[C@@H](O)[C@@H]1O` [Sequoyitol, sequoyitol], in “Solubility in water”, the Solubility in water entry is recorded as “well soluble in water”. The Toxicity entry in data set [2] is listed as “very low toxicity”. Also, in the data set with diabetes models, the “Effect on breakdown of hepatic glycogen and absorption of glucose” value is “inhibits the breakdown of hepatic glycogen and the absorption of glucose”; the “Effect on high glycemia in diabetes models” value is recorded as “remarkably decreases high glycemia”.

The record behind these values is patent US20100197803A1, “METHOD FOR OBTAINING A SEQUOYITOL-CONTAINING EXTRACT FROM A PLANT OF THE GENUS OF TRIFOLIUM, LEGUMINOSAE OR GINKOACEAE AND USES THEREOF” (LIANCHUANGSIYUANLI BIOLOGY AND SCIENCE AND TECHNOLOGY CO., …, priority 2007, published 2010).
